# Experimental data taken from US5358712A, “Radiopharmaceutical agents for the detection of Alzheimer's disease” (Regents of the University of Minnesota, priority 1993, dated 1994).
# Entries after “also recorded” stand apart in the source; their conditions may differ.
# What was measured:
# vesamicol receptor [1] = target: T1, vesamicol receptor (Tetronarce californica, UniProt P81721); test: Binding affinities of aminoalcohols at the vesamicol receptor (purified cholinergic synaptic vesicles); design: species or system Torpedo californica
# T1 construct: no ATP or acetylcholine
# T1 sequence (P81721 1-515): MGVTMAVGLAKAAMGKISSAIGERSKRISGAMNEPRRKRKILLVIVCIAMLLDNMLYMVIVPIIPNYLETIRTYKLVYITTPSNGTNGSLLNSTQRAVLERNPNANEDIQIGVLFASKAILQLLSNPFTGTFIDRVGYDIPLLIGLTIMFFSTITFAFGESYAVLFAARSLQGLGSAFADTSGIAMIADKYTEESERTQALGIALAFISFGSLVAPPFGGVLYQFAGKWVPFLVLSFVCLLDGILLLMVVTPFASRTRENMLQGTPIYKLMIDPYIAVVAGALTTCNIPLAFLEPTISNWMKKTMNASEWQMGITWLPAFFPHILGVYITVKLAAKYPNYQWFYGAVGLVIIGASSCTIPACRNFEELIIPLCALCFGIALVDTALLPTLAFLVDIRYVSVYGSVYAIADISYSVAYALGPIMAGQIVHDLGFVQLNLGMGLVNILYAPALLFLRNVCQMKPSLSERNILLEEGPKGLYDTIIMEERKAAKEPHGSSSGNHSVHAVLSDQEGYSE
# Experimental: The compounds were evaluated in a purified preparation of cholinergic synaptic vesicles isolated from the electric organ of Torpedo californica. A full description of this assay was described earlier. However, the present study was carried out in the absence of ATP and acetylcholine. […] Nonlinear regression analysis was carried out with MINSQ (MicroMath Scientific Software, Salt Lake City, Utah.). Protein content was determined by the method of Bradford, using a bovine serum albumin standard.
# ^a The compounds were tested as the corresponding hydrochlorides,
# using highly purified synaptic vesicles obtained from the electric organ
# of Torpedo Californica, following a procedure described earlier (8).
# vesamicol receptor [2] = conditions: rodent brain; cited from earlier work
# monkey brain = test: Brain imaging study (SPECT); assay type: in vivo; conditions: cynomolgus monkey
# Experimental: These studies were conducted with a Picker 3-head PRISM camera equipped with a high-resolution fan beam collimator. A 5-Kg male cynomolgus monkey, anesthetized with halothane, received an intravenous dose of 12 mCi of (-)-4-[^123 I]HIPP ((-)-[^123 I]5) in 1 ml of 50% ethanol-isotonicsaline. Data acquisition which commenced simultaneously, in the "step and shoot" mode, was divided into one 5minute segment, six 10-minute segments and a final 20-minute segment. At 18 hours post-injection, data was acquired under similar conditions for both the head and the heart, over a 20 minute period. For cardiac imaging, the camera was equipped with a medium-energy-parallel-hole collimator. The data was subsequently processed to obtain both a time-activity curve and images in the transaxial and sagittal planes. To obtain an estimate of the fractional accumulation of (-)-4-^123 I]HIPP in the monkey brain, a phantom filled consecutively with varying concentrations of aqueous Na^125 I was counted with the gamma camera to generate a standard curve.
# rat brain = test: Ex vivo autoradiographic studies, regional distribution in the rodent brain; design: species or system rat (male Wistar); conditions: 3 hours
# Experimental: Four male Wistar rats weighing 300-330 g. were anesthetized with diethyl ether. While under anesthesia two animals each received an intravenous dose of 300 μCi of (-)-4-[^125 I]HIPP in […] of 50% aqueous ethanol. The second pair of animals received an iv dose of (+)-4-[^125I]HIPP (170 μCi) in the same solvent. The animals were sacrificed by decapitation three hours following radiotracer administration. The brains were harvested, embedded in Tissue Tek OCT embedding medium and frozen to -38° C. Twenty-micron thick brain sections were obtained at -15° C. using a Reicheft HistoSTAT cryostat microtome. The sections were dried and opposed to Kodak NMC film for autoradiography accompanied by external standards (^125 I-labelled microscales from Amersham). Images were subsequently digitized based on the linear scale obtained from these standards.
# vesamicol receptor [3] = test: Blocking experiments: inhibition of radiotracer accumulation in the rat by coadministered compound; assay type: in vivo, rat (male Wistar); conditions: rat, 60 min; for Brain: Blood Ratio / Heart: Blood Ratio / radioactivity in liver: iv
# In short: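 Male Wistar rats (n=3/group) got iv radiotracer, alone or coadministered with blocker (e.g. (+)/(−)-HBrPP·HCl 1.3 μmol/kg, vesamicol·HCl 1.1 μmol/kg, or 0.31–0.53 mg/kg in other series). Blood and tissues taken 60 min post-injection to assess radiotracer accumulation.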
# [4] = Tissue distribution (biodistribution) of radioiodinated compound in the rat; conditions: for Brain: Blood Ratio / Heart: Blood Ratio / radioactivity in blood / radioactivity in brain / radioactivity in heart / radioactivity in kidney / radioactivity in liver / radioactivity in lung / radioactivity in muscle / radioactivity in spleen: iv
# vesamicol receptor [5] = conditions: cited from earlier work
# [6] = tested on: vesicular acetylcholine storage; conditions: cited from earlier work; for vesamicol-like inhibitory activity (in words): Kaufman et al 1988
# [7] = coadministered blocker, listed as (-)-[^125 I]5
# [8] = + (dl)-vesamicol HCl 0.3 (Table 3) or 0.31 mg/kg
smiles,measurement,setting,value
"OC(CN1CCC(c2ccccc2)CC1)c1ccc(Br)cc1 (racemic) [Compound 15i, (dl)-1-(4-Bromophenyl)-2-(4-phenylpiperidinyl)ethanol]",binding to the vesamicol receptor (in words),vesamicol receptor [1],equipotent with (dl)-vesamicol
O[C@@H]1CCCC[C@H]1N1CCC(c2ccccc2)CC1 (relative stereo) [[^3 H]vesamicol],cortical [^3 H]vesamicol binding after lesioning a known cholinergic pathway,vesamicol receptor [2],significant decrease
same,distribution relative to other markers of cholinergic innervation,vesamicol receptor [2],correlate well
"OC(Cc1cccc(I)c1)CN1CCC(c2ccccc2)CC1 (single isomer, unassigned; (+)) [Compound 15j, (+)-2-Hydroxyl-3-(3-iodophenyl)-1-[1-(4-phenylpiperidinyl)]propane]",Kd,"vesamicol receptor [1]; synaptic vesicles from electric organ of Torpedo californica, tested as hydrochloride",73 ± 11 nM
"OC(Cc1ccc([123I])cc1)CN1CCC(c2ccccc2)CC1 (single isomer, unassigned; (-)) [(-)-4-[^123 I]HIPP, 2-Hydroxy-3-(4-iodophenyl)-1-(4-phenylpiperidyl)propane]",brain activity relative to surrounding tissues,monkey brain; 11/2 and 18 hours post-injection,high levels of activity
same,t-1/2 in the monkey brain,monkey brain; iv,9 h
same,accumulation within the brain,"monkey brain; iv, estimated",~3 % of the injected dose
"OC(Cc1ccc([125I])cc1)CN1CCC(c2ccccc2)CC1 (single isomer, unassigned; (-)) [(-)-4-[^125 l]HIPP] [2-Hydroxy-3-(4-iodophenyl)-1-(4-phenylpiperidyl)propane]",radioactivity in cerebellar molecular layer relative to granular layer,rat brain,slightly higher concentration
same,radioactivity in frontal cortex and caudate-putamen,rat brain,Moderate levels
same,radioactivity in pineal gland and nuclei of fifth and seventh cranial nerves,rat brain,highest levels
same,radioactivity in the white matter,rat brain,relatively low
same,reduction of accumulation of radioactivity in the brain,vesamicol receptor [3]; [7],70%
same,reduction of accumulation of radioactivity in the heart,vesamicol receptor [3]; [7],84%
same,Brain: Blood Ratio,vesamicol receptor [3]; + (+)-7 HCl 0.53 mg/kg,5.6
same,Heart: Blood Ratio,vesamicol receptor [3]; + (+)-7 HCl 0.53 mg/kg,2.5
same,radioactivity in liver,vesamicol receptor [3]; + (+)-7 HCl 0.53 mg/kg,2.87 % dose/g of tissue
same,Brain: Blood Ratio,vesamicol receptor [3]; + (-)-7 HCl 0.53 mg/kg,7.1
same,Heart: Blood Ratio,vesamicol receptor [3]; + (-)-7 HCl 0.53 mg/kg,3.0
same,radioactivity in liver,vesamicol receptor [3]; + (-)-7 HCl 0.53 mg/kg,1.90 % dose/g of tissue
same,Brain: Blood Ratio,vesamicol receptor [3]; [8],12.7
same,Heart: Blood Ratio,vesamicol receptor [3]; [8],4.9
same,Brain: Blood Ratio,vesamicol receptor [3]; radiotracer only (control),42.7
same,Heart: Blood Ratio,vesamicol receptor [3]; radiotracer only (control),36.5
same,injected dose found in the brain,"[4]; rat, 5 minutes post injection, listed as (-)-[^125 I]5",1.94 % of the injected dose
same,injected dose found in the heart,"[4]; rat, 5 minutes post-injection, listed as (-)-[^125 I]5",1.2 % of the injected dose
same,reduction of injected dose in the heart,"[4]; rat, 5 minutes to 3 hours",50%
same,injected dose found in the heart,"[4]; rat, after 3 hours",0.59 % of the injected dose
same,concentration of radioactivity in the brain over time,"[4]; rat, duration of the study (3 hours), listed as (-)-[^125 I]5",remained essentially stable
same,Brain: Blood Ratio,"[4]; rat, 5 min",12.3
same,Heart: Blood Ratio,"[4]; rat, 5 min",16.4
same,radioactivity in blood,"[4]; rat, 5 min",0.09 % dose/g
same,radioactivity in brain,"[4]; rat, 5 min",1.03 % dose/g
same,radioactivity in heart,"[4]; rat, 5 min",1.32 % dose/g
same,radioactivity in kidney,"[4]; rat, 5 min",2.89 % dose/g
same,radioactivity in liver,"[4]; rat, 5 min",1.33 % dose/g
same,radioactivity in lung,"[4]; rat, 5 min",8.62 % dose/g
same,radioactivity in muscle,"[4]; rat, 5 min",0.35 % dose/g
same,radioactivity in spleen,"[4]; rat, 5 min",0.87 % dose/g
same,Brain: Blood Ratio,"[4]; rat, 30 min",31.3
same,Heart: Blood Ratio,"[4]; rat, 30 min",26.8
same,radioactivity in blood,"[4]; rat, 30 min",0.03 % dose/g
same,radioactivity in brain,"[4]; rat, 30 min",0.94 % dose/g
same,radioactivity in heart,"[4]; rat, 30 min",0.74 % dose/g
same,radioactivity in kidney,"[4]; rat, 30 min",2.23 % dose/g
same,radioactivity in liver,"[4]; rat, 30 min",2.28 % dose/g
same,radioactivity in lung,"[4]; rat, 30 min",4.80 % dose/g
same,radioactivity in muscle,"[4]; rat, 30 min",0.19 % dose/g
same,radioactivity in spleen,"[4]; rat, 30 min",1.09 % dose/g
same,Brain: Blood Ratio,"[4]; rat, 60 min",55.5
same,Heart: Blood Ratio,"[4]; rat, 60 min",40.3
same,radioactivity in blood,"[4]; rat, 60 min",0.02 % dose/g
same,radioactivity in brain,"[4]; rat, 60 min",0.98 % dose/g
same,radioactivity in heart,"[4]; rat, 60 min",0.72 % dose/g
same,radioactivity in kidney,"[4]; rat, 60 min",1.85 % dose/g
same,radioactivity in liver,"[4]; rat, 60 min",2.0 % dose/g
same,radioactivity in lung,"[4]; rat, 60 min",3.33 % dose/g
same,radioactivity in muscle,"[4]; rat, 60 min",0.18 % dose/g
same,radioactivity in spleen,"[4]; rat, 60 min",1.40 % dose/g
same,Brain: Blood Ratio,"[4]; rat, 180 min",69.7
same,Heart: Blood Ratio,"[4]; rat, 180 min",42.5
same,radioactivity in blood,"[4]; rat, 180 min",0.01 % dose/g
same,radioactivity in brain,"[4]; rat, 180 min",0.94 % dose/g
same,radioactivity in heart,"[4]; rat, 180 min",0.57 % dose/g
same,radioactivity in kidney,"[4]; rat, 180 min",1.63 % dose/g
same,radioactivity in liver,"[4]; rat, 180 min",2.43 % dose/g
same,radioactivity in lung,"[4]; rat, 180 min",2.52 % dose/g
same,radioactivity in muscle,"[4]; rat, 180 min",0.16 % dose/g
same,radioactivity in spleen,"[4]; rat, 180 min",1.21 % dose/g
same,level of radioactivity in the blood,"[4]; rat, throughout the study",low
same,brain retention (in words),[4]; rodent (and monkey),comparable retention
"OC(Cc1ccc(Br)cc1)CN1CCC(c2ccccc2)CC1 (single isomer, unassigned; (-)) [(-)-15a, 3-(4-Bromophenyl)-2-hydroxy-1-[1-(4-phenylpiperidinyl)]propane]",binding to the vesamicol receptor (in words),vesamicol receptor [1],essentially equipotent with vesamicol
OC1Cc2ccccc2CC1N1CCC(c2ccccc2)CC1 (stereo not shown) [Compound 1],eudesmic ratio,vesamicol receptor [5],not unity
same,vesamicol-like inhibitory activity (in words),[6]; Rogers et al 1989,potent
Nc1cccc2c1CC(N1CCC(c3ccccc3)CC1)C(O)C2 (stereo not shown) [Compound 2],ligand potency at the vesamicol receptor (in words),vesamicol receptor [5]; literature,potent ligands
same,vesamicol-like inhibitory activity (in words),[6]; Rogers et al 1989,potent
OCCN1CCC(c2ccccc2)CC1 [Compound 4],vesamicol-like inhibitory activity (in words),[6]; Rogers et al 1989,weak inhibitors; also recorded: very weak inhibitor
same,potency relative to vesamicol,[6]; Rogers et al 1989,two hundred and fifty times less potent
CC(O)CN1CCC(c2ccccc2)CC1 (stereo not shown) [Compound 14],vesamicol-like inhibitory activity (in words),[6]; Rogers et al 1989,weak inhibitors
CC(O)CN1CCC(c2ccccc2)CC1 (stereo not shown) [Compound 14b],increase in activity relative to ethanol analog 4,[6]; addition of an α-methyl group,thirty-fold increase in activity
